Reference: patent US11219625B2, “Inhibitors of N-linked glycosylation and methods using same” (YALE UNIVERSITY, priority 2015, dated 2022)

Legend:
Format in all cases: cell-based
[1] = system: HepG2 cells; experiment: Celltiter Glo viability assay, HepG2; conditions: HEPG2 EC50 over NLG AC40
Source text: (§1) The HTS approach using the bioluminescent N-linked glycosylation reporter (CCR 2011) in D54-ERLucT and D54-LucT cells has been previously described (Bennett, et al., Transl Oncol 2013, 6, 382-391). Briefly, the primary cell-based screen detects site occupancy of NLG sequons using a modified luciferase protein translated into the ER. […] The methodology for the primary (D54-ERlucT), secondary (D54-LucT), and tertiary (luciferase inhibition) screens as well and toxicity assays with CelltitreGlo are deposited in Pubchem (AID 588693).
(§2) To better understand the connection between structure and activity, analogs were prepared and tested in the D54-ERLucT cell based assay for inhibition of N-linked glycosylation (FIG. 1B). The assay was used to estimate and compare AC40 values among analogs and to guide the design of improved compounds that inhibited N-linked glycosylation. This effort generated 36 unique compounds with modifications to the amine component of the sulfonamide functionality (red), the pyrrolidine moiety (blue) or the methylaminothiazole group (green). Generally, incorporation of larger sulfonamides (i.e., larger secondary amines appended to the sulphone) was not well tolerated, resulting in erosion of potency (7 analogs). However, steric interactions could be mitigated by the introduction of a hydrogen bond accepting oxygen in a larger cyclic amine. Thus, morpholine was determined to be an acceptable surrogate for the dimethylamine component of the sulfonamide (FIGS. 1A-1D). The pyrrolidine group (blue) was replaced with various alkyl, cycloalkyl, and amine groups (7 compounds). The aminothiazole moiety was derivatized most extensively of all three regions (green highlighted area, 22 analogs). […] Analogs with the highest potency in the luciferase assay were retested with western blot analysis to insure that measurements of luciferase activation corresponded to loss of N-linked glycosylation.

[2] = Celltiter Glo viability assay, HepG2; conditions: human, HepG2 cells; HEPG2, 72 h of compound exposure; read-out: Cytotoxicity Assay Mean EC50
Source text: as §1, §2

[3] = system: H2444 cells; experiment: MTT proliferation assay, H2444; conditions: H2444, 10 μM NGI-1, 5 d
Protocol: FIGS. 4A-4H illustrate the finding that NGI-1 blocks RTK driven proliferation. FIG. 4A illustrates western blot analysis of EGFR phosphorylation (Y1173) and gel mobility in PC9 (EGFR-mutant) and A549 (k-ras mutant) NSCLC cells after 10 μM NGI-1 treatment for 24 h. […] Actin expression was used as a control for protein loading. FIG. 4B illustrates MTT assays results of PC9 following treatment with 10 μM NGI-1 or 1 μM tunicamycin for a total of 5 d. Relative proliferation id reported in fold increase from day 0. FIG. 4C illustrates MTT assays results of A549 following treatment with 10 μM NGI-1 or 1 μM tunicamycin for a total of 5 d. Relative proliferation id reported in fold increase from day 0. FIG. 4D illustrates protein phosphorylation profiles of PC9 cells analyzed by phospho-protein array to assess the response of PC9 to 10 μM NGI-1 for 24 h. FIG. 4E illustrates protein phosphorylation profiles of A549 cells analyzed by phospho-protein array to assess the response of A549 to 10 μM NGI-1 for 24 h. […]
Growth rates were determined by CellTiter 96 NonRadioactive Cell Proliferation Assay (Promega; Madison, Wis. USA) according to the manufacturer's directions. […] Cell numbers were estimated after 0, 3, and 5 days by adding MTT [(3-(4,5-Dimethylthiazol-2-yl)-2,5-diphenyltetrazolium bromide] reagent to the wells 4 hours before taking the spectrophotometric reading (absorbance at 570 nm).

[4] = system: H3255 cells; experiment: Cell cycle distribution by flow cytometry, H3255; conditions: H3255, NGI-1 24 h, p<0.05
Protocol: FIGS. 7A-7D illustrate EGFR kinase domain mutant cell lines growth inhibition and cell cycle arrest response to NGI-1. FIG. 7A illustrates MTT assays to determine the effects of NGI-1 on growth of H3255 cells. FIG. 7B illustrates MIT assays to determine the effects of NGI-1 on growth of HCC827 cells. EGFR kinase domain mutant cell lines H3255 and HCC827 cells were untreated or treated with 10 μM NGI-1 for 5 d. […] FIG. 7C illustrates cell cycle distribution of H3255 after 24 h NGI-1 treatment for 24 h determined by flow cytometry. FIG. 7D illustrates cell cycle distribution of HCC827 after 24 h NGI-1 treatment for 24 h determined by flow cytometry.
For the assessment of cell cycle distribution, 1×10^6 cells were collected, washed once with ice-cold PBS and fixed in ice-cold 70% ethanol overnight at −20° C. Thereafter, cells were washed twice with PBS and incubated for 30 min at room temperature in 200 μL of Guava Cell Cycle Reagent (Guava Technologies). Cytofluorometric acquisitions were performed on a LSRII cytometer (BD Biosciences). First-line analysis was performed with Flow Jo software, upon gating on the events characterized by normal forward and side scatter parameters and discrimination of doublets in a FSC-A vs. FSC-H bivariate plot. Approximately 30,000 cells were analyzed per experiment, and the mean value was obtained from 3 independent assays.

With `Cc1cnc(NC(=O)c2cc(S(=O)(=O)N(C)C)ccc2N2CCCC2)s1` [NGI-1, 5-(N,N-Dimethylsulfamoyl)-N-(5-methylthiazol-2-yl)-2-(pyrrolidin-1-yl)benzamide] the “Selectivity (EC50/AC40)” value [1] was over 172, the EC50 at 72 h [2] was over 30 µM and the “effect on proliferation, MTT” value [3] was “insensitive to NGI-1”. For the same compound, the cell cycle distribution [4] was “undergo G1 arrest”.
